Assay results published in PubChem BioAssay (NCI).
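The compound was tested at five concentrations on cells cultured in 96-well plates, with a 48-hour exposure period. TGI: concentration producing complete growth inhibition.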

Assays:
Assay in all cases: NCI tumour cell line growth inhibition, 48 h
UACC-257 melanoma = test system: UACC-257 melanoma
A498 renal = test system: A498 renal
MDA-N = test system: MDA-N
HOP-62 NSCLC = test system: HOP-62 NSCLC
HT29 colon = test system: HT29 colon
SF-268 CNS = test system: SF-268 CNS
SF-295 CNS = test system: SF-295 CNS
NCI-H460 lung = test system: NCI-H460 lung
MDA-MB-231 breast = test system: MDA-MB-231 breast
SNB-75 CNS = test system: SNB-75 CNS
HCT-15 colon = test system: HCT-15 colon
SK-OV-3 ovarian = test system: SK-OV-3 ovarian
COLO 205 colon = test system: COLO 205 colon
UACC-62 melanoma = test system: UACC-62 melanoma
T-47D breast = test system: T-47D breast
U251 CNS = test system: U251 CNS
ACHN renal = test system: ACHN renal
PC-3 prostate = test system: PC-3 prostate
SR leukemia = test system: SR leukemia
LOX IMVI melanoma = test system: LOX IMVI melanoma

Structure (SMILES): COc1ccc(CC2c3cc(Oc4cc(CC5c6cc(OC)c(OC)cc6CCN5C)ccc4O)c(OC)cc3CCN2C)cc1 (stereo not given)
- TGI (UACC-257 melanoma): 15 µM
- TGI (A498 renal): 14.8 µM
- TGI (MDA-N): 13.7 µM
- TGI (HOP-62 NSCLC): 14.9 µM
- TGI (HT29 colon): 8.15 µM
- TGI (SF-268 CNS): 17 µM
- TGI (SF-295 CNS): 15.4 µM
- TGI (NCI-H460 lung): 14.1 µM
- TGI (MDA-MB-231 breast): 14.8 µM
- TGI (SNB-75 CNS): 15.3 µM
- TGI (HCT-15 colon): 4.6 µM
- TGI (SK-OV-3 ovarian): 16.5 µM
- TGI (COLO 205 colon): 14.7 µM
- TGI (UACC-62 melanoma): 15.6 µM
- TGI (T-47D breast): 12.8 µM
- TGI (U251 CNS): 11.9 µM
- TGI (ACHN renal): 13.5 µM
- TGI (PC-3 prostate): 11.4 µM
- TGI (SR leukemia): 4.6 µM
- TGI (LOX IMVI melanoma): 10.7 µM

Structure (SMILES): O=c1[nH]c(-c2ccc3ccccc3c2)nc2ccccc12
- TGI (UACC-257 melanoma): > 100 µM
- TGI (A498 renal): > 100 µM
- TGI (MDA-N): > 100 µM
- TGI (HOP-62 NSCLC): 50.2 µM
- TGI (HT29 colon): > 100 µM
- TGI (SF-268 CNS): > 100 µM
- TGI (SF-295 CNS): > 100 µM
- TGI (NCI-H460 lung): > 100 µM
- TGI (MDA-MB-231 breast): > 100 µM
- TGI (SNB-75 CNS): 28.6 µM
- TGI (HCT-15 colon): > 100 µM
- TGI (SK-OV-3 ovarian): > 100 µM
- TGI (COLO 205 colon): > 100 µM
- TGI (UACC-62 melanoma): > 100 µM
- TGI (T-47D breast): > 100 µM
- TGI (U251 CNS): > 100 µM
- TGI (ACHN renal): 80.2 µM
- TGI (PC-3 prostate): > 100 µM
- TGI (SR leukemia): > 100 µM
- TGI (LOX IMVI melanoma): > 100 µM

Structure (SMILES): CCOC(=O)C1=C(C)N(C)C23OC4(C(=O)OC)CC2c2ccccc2C1N3C4=O (stereo not given)
- TGI (UACC-257 melanoma): > 100 µM
- TGI (A498 renal): > 100 µM
- TGI (MDA-N): > 100 µM
- TGI (HOP-62 NSCLC): > 100 µM
- TGI (HT29 colon): > 100 µM
- TGI (SF-268 CNS): > 100 µM
- TGI (SF-295 CNS): > 100 µM
- TGI (NCI-H460 lung): > 100 µM
- TGI (MDA-MB-231 breast): > 100 µM
- TGI (SNB-75 CNS): > 100 µM
- TGI (HCT-15 colon): > 100 µM
- TGI (SK-OV-3 ovarian): > 100 µM
- TGI (COLO 205 colon): > 100 µM
- TGI (UACC-62 melanoma): > 100 µM
- TGI (T-47D breast): > 100 µM
- TGI (U251 CNS): > 100 µM
- TGI (ACHN renal): > 100 µM
- TGI (PC-3 prostate): > 100 µM
- TGI (SR leukemia): > 100 µM
- TGI (LOX IMVI melanoma): > 100 µM

Structure (SMILES): Nc1nc(N)c2[nH]c(CNc3ccc(C(=O)O)cc3)nc2n1
- TGI (UACC-257 melanoma): > 100 µM
- TGI (A498 renal): > 100 µM
- TGI (MDA-N): > 100 µM
- TGI (HOP-62 NSCLC): > 100 µM
- TGI (HT29 colon): > 100 µM
- TGI (SF-268 CNS): > 100 µM
- TGI (SF-295 CNS): > 100 µM
- TGI (NCI-H460 lung): > 100 µM
- TGI (MDA-MB-231 breast): > 100 µM
- TGI (SNB-75 CNS): > 100 µM
- TGI (HCT-15 colon): > 100 µM
- TGI (SK-OV-3 ovarian): > 100 µM
- TGI (COLO 205 colon): > 100 µM
- TGI (UACC-62 melanoma): > 100 µM
- TGI (T-47D breast): > 100 µM
- TGI (U251 CNS): > 100 µM
- TGI (ACHN renal): > 100 µM
- TGI (PC-3 prostate): > 100 µM
- TGI (SR leukemia): > 100 µM
- TGI (LOX IMVI melanoma): > 100 µM

Structure (SMILES): C[C@]12CC[C@H](O)CC1=CC[C@@H]1[C@@H]2CC[C@]2(C)C(=O)[C@@H](N3CCOCC3)C[C@@H]12
- TGI (UACC-257 melanoma): > 100 µM
- TGI (A498 renal): > 100 µM
- TGI (MDA-N): > 100 µM
- TGI (HOP-62 NSCLC): > 100 µM
- TGI (HT29 colon): > 100 µM
- TGI (SF-268 CNS): > 100 µM
- TGI (SF-295 CNS): > 100 µM
- TGI (NCI-H460 lung): > 100 µM
- TGI (MDA-MB-231 breast): > 100 µM
- TGI (SNB-75 CNS): 99.2 µM
- TGI (HCT-15 colon): > 100 µM
- TGI (SK-OV-3 ovarian): > 100 µM
- TGI (COLO 205 colon): > 100 µM
- TGI (UACC-62 melanoma): > 100 µM
- TGI (T-47D breast): > 100 µM
- TGI (U251 CNS): > 100 µM
- TGI (ACHN renal): > 100 µM
- TGI (PC-3 prostate): > 100 µM
- TGI (SR leukemia): > 100 µM
- TGI (LOX IMVI melanoma): > 100 µM

Structure (SMILES): CCCCCCCCCCCCCCCCCCNc1ccn(C2OC(COP(=O)(O)OCC3OC(n4cc(C)c(=O)[nH]c4=O)CC3O)C(O)C2O)c(=O)n1 (stereo not given)
- TGI (UACC-257 melanoma): 37.1 µM
- TGI (A498 renal): 58.3 µM
- TGI (MDA-N): 33.1 µM
- TGI (HOP-62 NSCLC): 32.4 µM
- TGI (HT29 colon): 30.4 µM
- TGI (SF-268 CNS): 32.4 µM
- TGI (SF-295 CNS): 33.1 µM
- TGI (NCI-H460 lung): 36.3 µM
- TGI (MDA-MB-231 breast): 31.1 µM
- TGI (SNB-75 CNS): 33 µM
- TGI (HCT-15 colon): 33.5 µM
- TGI (SK-OV-3 ovarian): 31.8 µM
- TGI (COLO 205 colon): 28.1 µM
- TGI (UACC-62 melanoma): 33.8 µM
- TGI (T-47D breast): 41.8 µM
- TGI (U251 CNS): 34.9 µM
- TGI (ACHN renal): 44.4 µM
- TGI (PC-3 prostate): 10.2 µM
- TGI (SR leukemia): 28.2 µM
- TGI (LOX IMVI melanoma): 31.9 µM

Structure (SMILES): COc1ccc2nc3ccc(OC)cc3c(S(=O)CCCl)c2c1 (stereo not given)
- TGI (UACC-257 melanoma): 5.38 µM
- TGI (A498 renal): 34 µM
- TGI (MDA-N): 7.58 µM
- TGI (HOP-62 NSCLC): 36.8 µM
- TGI (HT29 colon): 4.39 µM
- TGI (SF-268 CNS): 28.2 µM
- TGI (SF-295 CNS): 45.2 µM
- TGI (NCI-H460 lung): > 63.7 µM
- TGI (MDA-MB-231 breast): 11.8 µM
- TGI (SNB-75 CNS): 33.1 µM
- TGI (HCT-15 colon): > 20.6 µM
- TGI (SK-OV-3 ovarian): 40.2 µM
- TGI (COLO 205 colon): 3.13 µM
- TGI (UACC-62 melanoma): 32.1 µM
- TGI (T-47D breast): 5.62 µM
- TGI (U251 CNS): > 52.2 µM
- TGI (ACHN renal): 3.62 µM
- TGI (PC-3 prostate): 23.4 µM
- TGI (SR leukemia): > 22.7 µM
- TGI (LOX IMVI melanoma): 6.81 µM

Structure (SMILES): CCOC(=O)C1(Cc2ccc3c(c2)CCC3)Cc2cc3c(cc2C1)CCC3
- TGI (UACC-257 melanoma): 86.2 µM
- TGI (A498 renal): > 100 µM
- TGI (MDA-N): > 100 µM
- TGI (HOP-62 NSCLC): > 100 µM
- TGI (HT29 colon): 37.9 µM
- TGI (SF-268 CNS): > 100 µM
- TGI (SF-295 CNS): 70.8 µM
- TGI (NCI-H460 lung): 93.5 µM
- TGI (MDA-MB-231 breast): > 100 µM
- TGI (SNB-75 CNS): > 100 µM
- TGI (HCT-15 colon): > 100 µM
- TGI (SK-OV-3 ovarian): 88.2 µM
- TGI (COLO 205 colon): > 100 µM
- TGI (UACC-62 melanoma): > 100 µM
- TGI (T-47D breast): 50.7 µM
- TGI (U251 CNS): > 100 µM
- TGI (ACHN renal): > 100 µM
- TGI (PC-3 prostate): > 100 µM
- TGI (SR leukemia): > 100 µM
- TGI (LOX IMVI melanoma): 82.4 µM

Structure (SMILES): COCCOCc1nc(C#N)c(N)o1
- TGI (UACC-257 melanoma): > 100 µM
- TGI (A498 renal): > 100 µM
- TGI (MDA-N): > 100 µM
- TGI (HOP-62 NSCLC): > 100 µM
- TGI (HT29 colon): > 100 µM
- TGI (SF-268 CNS): > 100 µM
- TGI (SF-295 CNS): > 100 µM
- TGI (NCI-H460 lung): > 100 µM
- TGI (MDA-MB-231 breast): > 100 µM
- TGI (SNB-75 CNS): > 100 µM
- TGI (HCT-15 colon): > 100 µM
- TGI (SK-OV-3 ovarian): > 100 µM
- TGI (COLO 205 colon): > 100 µM
- TGI (UACC-62 melanoma): > 100 µM
- TGI (T-47D breast): > 100 µM
- TGI (U251 CNS): > 100 µM
- TGI (ACHN renal): > 100 µM
- TGI (PC-3 prostate): > 100 µM
- TGI (SR leukemia): > 100 µM
- TGI (LOX IMVI melanoma): > 100 µM
